Experimental data taken from paper PMC10328743, “5-Nitro-3-(2-(4-phenylthiazol-2-yl)hydrazineylidene)indolin-2-one derivatives inhibit HIV-1 replication by a multitarget mechanism of action” (Frontiers in Cellular and Infection Microbiology, 2023).

Key:
[1] = system: HIV-1 RTs bearing K103N, Y181C, and Y188L (RNase H); test: RNase H activity of HIV-1 RTs bearing K103N, Y181C and Y188L substitutions; type: biochemical; conditions: all cases
Procedure: K103N, Y181C, and Y188L mutations were introduced into the p6HRT-prot vector using the QuikChange protocol (Agilent Technologies, Santa Clara, CA, USA). Enzymes were expressed and purified as the wt-HIV-1 RT.
(§1) HIV RT-associated RNase H activity was measured as described ([Corona et al., 2016b]) in a 100-µl reaction volume containing 50 mM of Tris-HCl buffer, pH 7.8, 6 mM of MgCl2, 1 mM of dithiothreitol (DTT), 80 mM of KCl, 0.25 µM of hybrid RNA/DNA 5′-[…]-Fluorescin-3′ (high-performance liquid chromatography (HPLC), dry, QC: Mass Check) (available from Metabion) 5′-Dabcyl-[…]-3′ (HPLC, dry, QC: Mass Check), increasing concentrations of inhibitors, whose dilution were made in water, and different amounts of enzymes according to a linear range of the dose–response curve. The reaction mixture was incubated for 1 h at 37°C and stopped by the addition of EDTA, and products were measured with a multilabel counter plate reader Victor 3 equipped with filters for 490/528 nm.

[2] = system: HIV-1; test: Quantification of viral DNA genomes by qPCR in infected MT4 cells; type: cell-based; conditions: single HIV-1 replication cycle; for total viral DNA: increasing concentrations
Procedure: Quantitative PCR (qPCR) was performed as described previously ([Munir et al., 2013]). […] Cells were washed in phosphate-buffered saline (PBS), and dry cell pellets were frozen at −80°C until use. DNA from samples was purified with QIAamp DNA Blood mini kit (Qiagen, Valencia, CA, USA) according to the manufacturer’s instructions. Quantification of total viral DNAs, 2-LTR circular viral DNA (2-LTRc), and integrated DNAs was performed on a LightCycler instrument (Roche Diagnostics, Basel, Switzerland) using the second-derivative-maximum method provided by the LightCycler quantification software, version 3.5 (Roche Diagnostics). Amplification of the β-globin gene (two copies per diploid cell) was performed to normalize the results using the commercially available materials (Control kit DNA; Roche Diagnostics). The quantification of the results for 2-LTRc and total HIV-1 DNA was expressed as copy numbers per µg DNA. Integrated HIV-1 DNA was expressed as a percentage of wt control. Data were represented by mean and standard deviation of two independent experiments; p-values were calculated between the infected and infected-treated conditions by unpaired, two-tailed t-tests using GraphPad Prism Version 9.5.1 software (GraphPad Software, Inc., San Diego, CA, USA). Figures were drawn with GraphPad Prism Version 9.5.1.

[3] = biological target: T1, HIV-1 IN (LEDGF/p75-dependent) (Human immunodeficiency virus type 1 group M subtype B, UniProt P12497); test: biochemical; type: biochemical; conditions: strand-transfer activity in the presence of LEDGF/p75; for IC50: read-out: IC50 IN LEDGF-dependent integration
T1 construct: Preparation of recombinant full-length IN and LEDGF proteins; made in house; host or cells: E. coli BL21(DE3)
Procedure: Proteins were expressed in E. coli BL21(DE3). Briefly, His-IN was purified by loading the precipitate of cell lysate onto a Ni-Sepharose column and eluting with a […] imidazole gradient (0–500 mM) in a HEPES buffer (50 mM, pH 7.5) containing NaCl (1 M), CHAPS (7.5 mM), and β-mercaptoethanol (2 mM). FLAG-IN was purified by loading the precipitate of cell lysate onto a phenyl-sepharose and ammonium sulfate gradient (0–800 mM) in a HEPES (pH 7.5, 50 mM) buffer containing NaCl (200 mM), CHAPS (7.5 mM), and β-mercaptoethanol (2 mM). Peak fractions were pooled, loaded onto a heparin column, and eluted with an increasing NaCl gradient (200 mM to 1 M) in a HEPES (pH 7.5, 50 mM) buffer containing CHAPS (7.5 mm) and β-mercaptoethanol (2 mM). Fractions containing integrase were pooled and stored in glycerol (10%) at −80°C.
Briefly, IN (50 nM) was preincubated with increasing concentrations of compounds for 1 h at room temperature in a reaction buffer containing HEPES (20 mM, pH 7.5), DTT (1 mM), glycerol (1%), MgCl2 (20 mM), Brij-35 (0.05%), and bovine serum albumin (BSA) (0.1 mg/ml).

[4] = biological target: T2, HIV-1 RT-associated RNase H (Human immunodeficiency virus type 1 group M subtype B, UniProt P04585); test: HIV-1 DNA polymerase-independent RNase H activity determination; type: biochemical; conditions: wt HIV-1 RT; three independent experiments, average ± standard deviation; read-out: RNase H IC50
T2 construct: The 1:1 ratio between the p66/p51 subunits was also verified; His tag (implied only by Ni-NTA IMAC purification); made in house; host or cells: Escherichia coli M15
Procedure: Escherichia coli strain M15 containing the p6HRT-prot vector (provided by Stuart Le Grice laboratory (NCI Frederick)) was grown to an optical density at 600 nm of 0.7 and induced with 1.7 mM of isopropyl β-D-1-thiogalactopyranoside (IPTG) for 4 h. Protein purification was carried out with a BioLogic LP system (Bio-Rad, Hercules, CA, USA) using a combination of immobilized metal affinity chromatography (IMAC) and ion exchange chromatography. Cell pellets were resuspended in lysis buffer (50 mM of sodium phosphate buffer, pH 7.8, containing 0.5 mg/mL of lysozyme), incubated on ice for 20 min, and, after the addition of NaCl to a final concentration of 0.3 M, were sonicated and centrifuged at 30,000 ×g for 1 h. The supernatant was loaded onto a Ni^2+-NTA-Sepharose column pre-equilibrated with loading buffer (50 mM of sodium phosphate buffer, pH 7.8, containing 0.3 M of NaCl, 10% glycerol, and 10 mM of imidazole) and washed thoroughly with wash buffer (50 mM of sodium phosphate buffer, pH 6.0, containing 0.3 M of NaCl, 10% glycerol, and 80 mM of imidazole). RT was eluted with an imidazole gradient in the wash buffer (0–0.5 M). Fractions were collected, and protein purity was checked by sodium dodecyl sulfate–polyacrylamide gel electrophoresis (SDS-PAGE) and found to be higher than 90%. The 1:1 ratio between the p66/p51 subunits was also verified. Enzyme-containing fractions were pooled and diluted 1:1 with 50 mM of sodium phosphate buffer, pH 7.0, containing 10% glycerol, and then loaded into a Hi-trap heparin HP GE (Healthcare LifeScience) pre-equilibrated with 10 column volumes of loading buffer (50 mM of sodium phosphate buffer, pH 7.0, containing 10% glycerol, and 150 mM of NaCl). The column was then washed with loading buffer, and the RT was eluted with Elute Buffer 2 (50 mM of sodium phosphate, pH 7.0, 10% glycerol, 1 M of NaCl). Fractions were collected, and the protein was dialyzed and stored in a buffer containing 50 mM of Tris-HCl, pH 7.0, 25 mM of NaCl, 1 mM of EDTA, and 50% glycerol. Catalytic activities and protein concentrations were determined. Enzyme-containing fractions were pooled, and aliquots were stored at −80°C.
as §1

Compound	increase in IC50 values vs wt RT, RNase H function [1]	DNA 2LTRc levels [2]	integrated viral DNA ([2]; 48 h)	total viral DNA [2]	IC50 [3] [µM]	IC50 [4] [µM]	IC50 IN LEDGF-dependent integration [3]
Cc1ccc(-c2csc(N/N=C3\C(=O)Nc4ccc([N+](=O)[O-])cc43)n2)cc1 [10a]	less than threefold	marked increase	significantly more marked effect than 9b	decrease in total viral DNA	32.3 ± 2.7	8.5 ± 0.5	–
O=C1Nc2ccc(Cl)cc2/C1=N/Nc1nc(-c2ccc(Cl)c(Cl)c2)cs1 [9b]	less than threefold	no increase	–	decrease in total viral DNA	> 100	8.8 ± 1.3	not able to inhibit IN
